# Legend:
# Type in all cases: in vivo
# [1] = tested on: sedge, umbrella (small-flower umbrella sedge, Cyperus difformis); assay: Test B flooded paddy test, visual plant response rating 0-100; conditions: 250 g ai/ha, Flood, applied to paddy water, evaluated after 13 days
# Method in brief: (§1)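 Treatment occurs at the 2-leaf stage by adding compound to floodwater standing 3 cm above the soil, a level kept for the whole test. Plants stay in the greenhouse 13 days before visual comparison with controls.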
# [2] = tested on: barnyardgrass (Echinochloa crusgalli); assay: as above; conditions: 250 g ai/ha, Flood, applied to paddy water, evaluated after 13 days
# Method in brief: as §1
# [3] = tested on: ducksalad (Heteranthera limosa); assay: as above; conditions: 250 g ai/ha, Flood, applied to paddy water, evaluated after 13 days
# Method in brief: as §1
# [4] = tested on: rice (Oryza sativa); assay: as above; conditions: 250 g ai/ha, Flood, applied to paddy water, evaluated after 13 days
# Method in brief: as §1
# [5] = tested on: green foxtail (Setaria viridis); assay: Test A preemergence soil spray, visual injury rating 0-100; conditions: 10 days, 0 = no effect, 100 = complete control
# Method in brief: (§2)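 Preemergence directed soil spray or postemergence spray (2-10 cm, 1-2 leaf); loam/sand mix; compound in non-phytotoxic solvent + surfactant. Greenhouse, 10 d. Visual injury vs untreated, 0 = none, 100 = complete control.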
# [6] = tested on: kochia (Bassia scoparia); assay: as above; conditions: 10 days, 0 = no effect, 100 = complete control
# Method in brief: as §2
# [7] = tested on: ragweed (common ragweed, Ambrosia artemisiifolia); assay: as above; conditions: 10 days, 0 = no effect, 100 = complete control
# Method in brief: as §2
# [8] = tested on: corn (Zea mays); assay: as above; conditions: 10 days, 0 = no effect, 100 = complete control
# Method in brief: as §2
# [9] = tested on: oat, wild (wild oat, Avena fatua); assay: as above; conditions: 10 days, 0 = no effect, 100 = complete control
# Method in brief: as §2
# [10] = tested on: wheat (Triticum aestivum); assay: as above; conditions: 10 days, 0 = no effect, 100 = complete control
# Method in brief: as §2
# [11] = tested on: barnyardgrass (Echinochloa crus-galli); assay: as above; conditions: 10 days, 0 = no effect, 100 = complete control
# Method in brief: as §2
# [12] = tested on: blackgrass (Alopecurus myosuroides); assay: as above; conditions: 10 days, 0 = no effect, 100 = complete control
# Method in brief: as §2
# [13] = tested on: palmer (palmer amaranth, palmer pigweed, Amaranthus palmeri); assay: as above; conditions: 10 days, 0 = no effect, 100 = complete control
# Method in brief: as §2
# [14] = tested on: ryegrass, Italian (italian ryegrass, Lolium multiflorum); assay: as above; conditions: 10 days, 0 = no effect, 100 = complete control
# Method in brief: as §2
# [15] = tested on: soybean (Glycine max); assay: as above; conditions: 10 days, 0 = no effect, 100 = complete control
# Method in brief: as §2
# [16] = tested on: green foxtail (Setaria viridis); assay: Test A postemergence application, visual injury rating 0-100; conditions: Postemergence, 10 days, 0 is no effect, 100 is complete control
# Method in brief: as §2
# [17] = tested on: kochia (Bassia scoparia); assay: as above; conditions: Postemergence, 10 days, 0 is no effect, 100 is complete control
# Method in brief: as §2
# [18] = tested on: ragweed (common ragweed, Ambrosia artemisiifolia); assay: as above; conditions: Postemergence, 10 days, 0 is no effect, 100 is complete control
# Method in brief: as §2
# [19] = tested on: corn (Zea mays); assay: as above; conditions: Postemergence, 10 days, 0 is no effect, 100 is complete control
# Method in brief: as §2
# [20] = tested on: horseweed (Erigeron canadensis); assay: as above; conditions: Postemergence, 10 days, 0 is no effect, 100 is complete control
# Method in brief: as §2
# [21] = tested on: oat, wild (wild oat, Avena fatua); assay: as above; conditions: Postemergence, 10 days, 0 is no effect, 100 is complete control
# Method in brief: as §2
# [22] = tested on: wheat (Triticum aestivum); assay: as above; conditions: Postemergence, 10 days, 0 is no effect, 100 is complete control
# Method in brief: as §2
# [23] = tested on: barnyardgrass (Echinochloa crus-galli); assay: as above; conditions: Postemergence, 10 days, 0 is no effect, 100 is complete control
# Method in brief: as §2
# [24] = tested on: galium (catchweed bedstraw, Galium aparine); assay: as above; conditions: Postemergence, 10 days, 0 is no effect, 100 is complete control
# Method in brief: as §2
# [25] = tested on: blackgrass (Alopecurus myosuroides); assay: as above; conditions: Postemergence, 10 days, 0 is no effect, 100 is complete control
# Method in brief: as §2
# [26] = tested on: palmer (palmer amaranth, palmer pigweed, Amaranthus palmeri); assay: as above; conditions: Postemergence, 10 days, 0 is no effect, 100 is complete control
# Method in brief: as §2
# [27] = tested on: ryegrass, Italian (italian ryegrass, Lolium multiflorum); assay: as above; conditions: Postemergence, 10 days, 0 is no effect, 100 is complete control
# Method in brief: as §2
# [28] = tested on: soybean (Glycine max); assay: as above; conditions: Postemergence, 10 days, 0 is no effect, 100 is complete control
# Method in brief: as §2
compound,measurement,setting,value
CC1(C(=O)NC2C=CC(C(=O)OCCS(C)(=O)=O)C2)CN(c2cc(Cl)cc(Cl)c2)C(=O)O1 (stereo not shown) [Compound 46],"Plant response rating, Sedge, Umbrella (0 to 100 scale, 0 is no effect and 100 is complete control)",[1],95
same,"Plant response rating, Barnyardgrass (0 to 100 scale, 0 is no effect and 100 is complete control)",[2],70
same,"Plant response rating, Ducksalad (0 to 100 scale, 0 is no effect and 100 is complete control)",[3],90
same,"Plant response rating, Rice (0 to 100 scale, 0 is no effect and 100 is complete control)",[4],10
same,"Foxtail, Green plant response rating (0 to 100 scale)",[5]; 125 g ai/ha,0
same,"Foxtail, Green plant response rating (0 to 100 scale)",[5]; 500 g ai/ha,0
same,Kochia plant response rating (0 to 100 scale),[6]; 125 g ai/ha,60
same,Kochia plant response rating (0 to 100 scale),[6]; 500 g ai/ha,90
same,Ragweed plant response rating (0 to 100 scale),[7]; 125 g ai/ha,30
same,Ragweed plant response rating (0 to 100 scale),[7]; 500 g ai/ha,70
same,Corn plant response rating (0 to 100 scale),[8]; 125 g ai/ha,0
same,Corn plant response rating (0 to 100 scale),[8]; 500 g ai/ha,90
same,"Oat, Wild plant response rating (0 to 100 scale)",[9]; 125 g ai/ha,70
same,"Oat, Wild plant response rating (0 to 100 scale)",[9]; 500 g ai/ha,90
same,Wheat plant response rating (0 to 100 scale),[10]; 125 g ai/ha,70
same,Wheat plant response rating (0 to 100 scale),[10]; 500 g ai/ha,90
same,Barnyardgrass plant response rating (0 to 100 scale),[11]; 125 g ai/ha,80
same,Barnyardgrass plant response rating (0 to 100 scale),[11]; 500 g ai/ha,100
same,Blackgrass plant response rating (0 to 100 scale),[12]; 125 g ai/ha,80
same,Blackgrass plant response rating (0 to 100 scale),[12]; 500 g ai/ha,90
same,"Amaranth, Palmer plant response rating (0 to 100 scale)",[13]; 125 g ai/ha,80
same,"Amaranth, Palmer plant response rating (0 to 100 scale)",[13]; 500 g ai/ha,100
same,"Ryegrass, Italian plant response rating (0 to 100 scale)",[14]; 125 g ai/ha,80
same,"Ryegrass, Italian plant response rating (0 to 100 scale)",[14]; 500 g ai/ha,90
same,Soybean plant response rating (0 to 100 scale),[15]; 125 g ai/ha,10
same,Soybean plant response rating (0 to 100 scale),[15]; 500 g ai/ha,60
same,"Foxtail, Green plant response rating (0 to 100 scale)",[16]; 125 g ai/ha,80
same,"Foxtail, Green plant response rating (0 to 100 scale)",[16]; 500 g ai/ha,90
same,Kochia plant response rating (0 to 100 scale),[17]; 125 g ai/ha,80
same,Kochia plant response rating (0 to 100 scale),[17]; 500 g ai/ha,80
same,Ragweed plant response rating (0 to 100 scale),[18]; 125 g ai/ha,60
same,Ragweed plant response rating (0 to 100 scale),[18]; 500 g ai/ha,80
same,Corn plant response rating (0 to 100 scale),[19]; 125 g ai/ha,100
same,Corn plant response rating (0 to 100 scale),[19]; 500 g ai/ha,100
same,Horseweed plant response rating (0 to 100 scale),[20]; 125 g ai/ha,80
same,Horseweed plant response rating (0 to 100 scale),[20]; 500 g ai/ha,80
same,"Oat, Wild plant response rating (0 to 100 scale)",[21]; 125 g ai/ha,80
same,"Oat, Wild plant response rating (0 to 100 scale)",[21]; 500 g ai/ha,90
same,Wheat plant response rating (0 to 100 scale),[22]; 125 g ai/ha,90
same,Wheat plant response rating (0 to 100 scale),[22]; 500 g ai/ha,90
same,Barnyardgrass plant response rating (0 to 100 scale),[23]; 125 g ai/ha,100
same,Barnyardgrass plant response rating (0 to 100 scale),[23]; 500 g ai/ha,100
same,Galium plant response rating (0 to 100 scale),[24]; 125 g ai/ha,80
same,Galium plant response rating (0 to 100 scale),[24]; 500 g ai/ha,70
same,Blackgrass plant response rating (0 to 100 scale),[25]; 125 g ai/ha,100
same,Blackgrass plant response rating (0 to 100 scale),[25]; 500 g ai/ha,100
same,"Amaranth, Palmer / Pigweed, Palmer plant response rating (0 to 100 scale)",[26]; 125 g ai/ha,90
same,"Amaranth, Palmer / Pigweed, Palmer plant response rating (0 to 100 scale)",[26]; 500 g ai/ha,90
same,"Ryegrass, Italian plant response rating (0 to 100 scale)",[27]; 125 g ai/ha,70
same,"Ryegrass, Italian plant response rating (0 to 100 scale)",[27]; 500 g ai/ha,70
same,Soybean plant response rating (0 to 100 scale),[28]; 125 g ai/ha,80
same,Soybean plant response rating (0 to 100 scale),[28]; 500 g ai/ha,90

# Reference: US20260285850A1, “SUBSTITUTED OXAZOLIDINONES AND IMIDAZOLINONES AS HERBICIDES” (FMC CORPORATION, priority 2023, published 2026)
